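In this assay, cells in 96-well plates receive the compound at five concentrations for 48 hours. Endpoints are linearly interpolated between the surrounding concentrations. GI50: concentration for 50% inhibition of growth. TGI denotes the concentration required for complete inhibition of growth.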
Legend:
Assay in all cases: inhibition of tumour cell growth, NCI panel, 48 h
MALME-3M melanoma = test system: MALME-3M melanoma
CCRF-CEM leukemia = test system: CCRF-CEM leukemia
HOP-92 NSCLC = test system: HOP-92 NSCLC
SW-620 colon = test system: SW-620 colon
SK-MEL-5 melanoma = test system: SK-MEL-5 melanoma
UACC-62 melanoma = test system: UACC-62 melanoma
MCF7 breast = test system: MCF7 breast
RXF 393 renal = test system: RXF 393 renal
786-0 renal = test system: 786-0 renal
NCI-H460 lung = test system: NCI-H460 lung
SK-MEL-2 melanoma = test system: SK-MEL-2 melanoma
NCI/ADR-RES ovarian = test system: NCI/ADR-RES ovarian
TK-10 renal = test system: TK-10 renal
UACC-257 melanoma = test system: UACC-257 melanoma
HL-60(TB) leukemia = test system: HL-60(TB) leukemia
A498 renal = test system: A498 renal
UO-31 renal = test system: UO-31 renal
RPMI-8226 leukemia = test system: RPMI-8226 leukemia
K-562 leukemia = test system: K-562 leukemia
MOLT-4 leukemia = test system: MOLT-4 leukemia
MDA-MB-435 = test system: MDA-MB-435
U251 CNS = test system: U251 CNS
SR leukemia = test system: SR leukemia
SNB-75 CNS = test system: SNB-75 CNS
COLO 205 colon = test system: COLO 205 colon
M14 melanoma = test system: M14 melanoma
MDA-MB-231 breast = test system: MDA-MB-231 breast
SF-539 CNS = test system: SF-539 CNS
LOX IMVI melanoma = test system: LOX IMVI melanoma
HCC-2998 colon = test system: HCC-2998 colon
HCT-116 colon = test system: HCT-116 colon
NCI-H522 lung = test system: NCI-H522 lung
SK-MEL-28 melanoma = test system: SK-MEL-28 melanoma

CC1COc2c(N3CCN(C)CC3)c(F)cc3c(=O)c(C(=O)N/N=C/c4cc[nH]c4)cn1c23 (stereo unspecified) was tested, and the GI50 (MALME-3M melanoma) was 1.04 µM, the TGI (MALME-3M melanoma) was 2.57 µM and the GI50 (CCRF-CEM leukemia) was 0.959 µM. It also gave a TGI (CCRF-CEM leukemia) of 2.79 µM, a GI50 (HOP-92 NSCLC) of 0.497 µM and a TGI (HOP-92 NSCLC) of 36 µM. For the same molecule, the GI50 (SW-620 colon) was 1.3 µM, the TGI (SW-620 colon) was 2.62 µM and the GI50 (SK-MEL-5 melanoma) was 1.4 µM. The TGI (SK-MEL-5 melanoma) was 2.71 µM, the GI50 (UACC-62 melanoma) was 1.7 µM and the TGI (UACC-62 melanoma) was 3.16 µM. For the same molecule, the GI50 (MCF7 breast) was 0.417 µM, the TGI (MCF7 breast) was 1.65 µM and the GI50 (RXF 393 renal) was 1.06 µM. The TGI (RXF 393 renal) was 2.35 µM, the GI50 (786-0 renal) was 1.42 µM and the TGI (786-0 renal) was 2.85 µM. For the same molecule, the GI50 (NCI-H460 lung) was 0.767 µM, the TGI (NCI-H460 lung) was 2.08 µM and the GI50 (SK-MEL-2 melanoma) was 1.57 µM. It also gave a TGI (SK-MEL-2 melanoma) of 3.01 µM, a GI50 (NCI/ADR-RES ovarian) of over 100 µM and a TGI (NCI/ADR-RES ovarian) of over 100 µM. It also gave a GI50 (TK-10 renal) of 5.4 µM, a TGI (TK-10 renal) of 96.1 µM and a GI50 (UACC-257 melanoma) of 1.64 µM. The TGI (UACC-257 melanoma) was 3.12 µM, the GI50 (HL-60(TB) leukemia) was 0.674 µM and the TGI (HL-60(TB) leukemia) was 2.59 µM. The GI50 (A498 renal) was 2.22 µM, the TGI (A498 renal) was over 100 µM and the GI50 (UO-31 renal) was 2.71 µM. It also gave a TGI (UO-31 renal) of over 100 µM, a GI50 (RPMI-8226 leukemia) of 2.19 µM and a TGI (RPMI-8226 leukemia) of 4.58 µM. For the same molecule, the GI50 (K-562 leukemia) was 0.699 µM, the TGI (K-562 leukemia) was 2.35 µM and the GI50 (MOLT-4 leukemia) was 0.502 µM. For the same molecule, the TGI (MOLT-4 leukemia) was 2.1 µM, the GI50 (MDA-MB-435) was 1.52 µM and the TGI (MDA-MB-435) was 2.91 µM. It also gave a GI50 (U251 CNS) of 0.614 µM, a TGI (U251 CNS) of 1.98 µM and a GI50 (SR leukemia) of 0.841 µM. For the same molecule, the TGI (SR leukemia) was 3.16 µM, the GI50 (SNB-75 CNS) was 1.48 µM and the TGI (SNB-75 CNS) was 3.47 µM. For the same molecule, the GI50 (COLO 205 colon) was 1.27 µM, the TGI (COLO 205 colon) was 2.6 µM and the GI50 (M14 melanoma) was 1.67 µM. It also gave a TGI (M14 melanoma) of 3.12 µM, a GI50 (MDA-MB-231 breast) of 1.48 µM and a TGI (MDA-MB-231 breast) of 3 µM. For the same molecule, the GI50 (SF-539 CNS) was 1.28 µM, the TGI (SF-539 CNS) was 2.61 µM and the GI50 (LOX IMVI melanoma) was 0.715 µM. For the same molecule, the TGI (LOX IMVI melanoma) was 2.07 µM, the GI50 (HCC-2998 colon) was 0.518 µM and the TGI (HCC-2998 colon) was 1.89 µM. The GI50 (HCT-116 colon) was 0.712 µM, the TGI (HCT-116 colon) was 2 µM and the GI50 (NCI-H522 lung) was 1.24 µM. The TGI (NCI-H522 lung) was 2.64 µM, the GI50 (SK-MEL-28 melanoma) was 1.47 µM and the TGI (SK-MEL-28 melanoma) was 2.83 µM.
